According to patent US7326689B2, “Pseudomycins useful against plant diseases” (Eli Lilly and Company, priority 2000, dated 2008):
Where “and” joins values, the source holds several entries; their conditions need not be identical. Identical values can stand only once.

Legend:
Assay in all cases: Antifungal growth assay in potato dextrose broth, 24-well
Format in all cases: cell-based
[1] = tested on: Stagonospora nodorum; design: key: NI, no inhibition; p (partial), at least 50% inhibited
Protocol: (§1) Fungi to be tested were propagated on potato dextrose agar (PDA) plates at room temperature. Stock solutions of pseudomycins and depsipeptide were suspended in dimethylsulfoxide (DMSO) (Sigma) at 5 mg/ml and stored at −20C. Serial dilutions of compounds were done the day of the experiment. All serial dilutions were made in DMSO. […] These are noted in the raw data section.
(§2) Assays were performed in 24-well cell culture clusters (Costar 3524), with 990 ul potato dextrose broth (PDB, Difco) and 10 ul of the compound to be tested in each well. Initial concentrations tested were 50-1.56 ug/ml (final concentration of pseudomycin). Actual concentrations of pseudomycins tested were 50, 25, 12.5, 6.25, 3.12 and 1.56 ug/ml. Each well was inoculated with the appropriate fungus. Unless noted, the fungal inoculum consisted of an ˜4 mm^2 piece of PDA with fungal mycelium. The exceptions were as follows. Ustilago maydis: this fungus grows much like a yeast on PDA, and cells were scraped from the PDA stock plate, resuspended in PDB and 10 ul inoculum added to each well. Monilinia sp.: this fungal mycelium grows as a very loose sheet on top of PDA and would not adhere to agar blocks. Fungal mycelium was ground with a metal rod in 500 ul PDB and 10 ul inoculum was added to each well. Mycosphaeella fijiensis, Septoria passerinii, Septoria triticii: these fungi all grow very slowly and the results were difficult to score if a small piece of agar with fungal mycelium on it was used as an inoculum. For these fungi, the mycelium was ground with a metal rod in 500 ul PDB and 10 ul inoculum was added to each well.
(§3) Wells were scored for fungal growth at two days and five days. Some slow growing fungi were scored at later days for growth because assessment was not possible at two or five days. Growth was scored by comparison to a control consisting of fungus inoculated into 990 ul potato dextrose broth and 10 ul of DMSO (Dimethylsulfoxide). An additional control consisting of fungal inoculum in PDB only was performed to ensure that the DMSO was not inhibitory to fungal growth.
(§4) For assays that were repeated, new stock solutions were made from a second shipment of pseudomycins. Note that pseudomycin B′ and depsipeptide stock solutions were remade from first shipment materials because these were not included in the second shipment. […] Actual concentrations of pseudomycins tested were 2, 1, 0.5, 0.25, 0.125 and 0.0625 ug/ml. A-PO4 and A-FB=pseudomycin A phosphate salt and free base respectively.
(§5) Table 2: Two day results—concentration indicated is lowest level of compound (ug /ml) that results is no growth. NI, no inhibition; p (partial), at least 50% inhibited; -, not determined. If number of assays was greater than one, number of assays performed on the fungus is noted in parentheses. For several slow-growing fungi, days elapsed before observation (if different than two) are noted.
(§6) Table 3: Five day results—concentration indicated is lowest level of compound (ug /ml) that results in no growth. NI, no inhibition; p (partial), at least 50% inhibited; -, not performed on the fungus is noted in parentheses. For several slow-growing fungi, days elapsed before observation (if different than five) are noted.

[2] = tested on: Fusarium culmorum; design: key: NI, no inhibition; p (partial), at least 50% inhibited
Protocol: as §1, §2, §3, §4, §5, §6

[3] = tested on: Verticillium dahliae; design: key: NI, no inhibition; p (partial), at least 50% inhibited; details: 2x assays
Protocol: as §1, §2, §3, §4, §5, §6

[4] = tested on: Alternaria helianthi; design: key: NI, no inhibition; p (partial), at least 50% inhibited; details: 2x assays
Protocol: as §1, §2, §3, §4, §5, §6

[5] = tested on: Drechslera tritici-repentis; design: key: NI, no inhibition; p (partial), at least 50% inhibited
Protocol: as §1, §2, §3, §4, §5, §6

[6] = tested on: Phytophthora cactorum; design: key: NI, no inhibition; p (partial), at least 50% inhibited
Protocol: as §1, §2, §3, §4, §5, §6

[7] = tested on: Drechslera teres; design: key: NI, no inhibition; p (partial), at least 50% inhibited
Protocol: as §1, §2, §3, §4, §5, §6

[8] = tested on: Bipolaris sorokiniana; design: key: NI, no inhibition; p (partial), at least 50% inhibited
Protocol: as §1, §2, §3, §4, §5, §6

[9] = tested on: Pestalotiopsis microspora NE-32; design: key: NI, no inhibition; p (partial), at least 50% inhibited
Protocol: as §1, §2, §3, §4, §5, §6

[10] = tested on: Phoma chrysamthecola; design: key: NI, no inhibition; p (partial), at least 50% inhibited; details: five day results
Protocol: as §1, §2, §3, §4, §5, §6

[11] = tested on: Fusarium oxysporum cubense; design: key: NI, no inhibition; p (partial), at least 50% inhibited
Protocol: as §1, §2, §3, §4, §5, §6

[12] = tested on: Mycosphaeella fijiensis (8088/88); details: 3x assays
Protocol: as §1, §2, §3, §4, §5, §6

[13] = tested on: Rhizoctonia solani; details: 2x assays
Protocol: as §1, §2, §3, §4, §5, §6

[14] = tested on: Septoria tritici; details: 3x assays
Protocol: as §1, §2, §3, §4, §5, §6

[15] = tested on: Drechslera portulacae; details: 3x assays
Protocol: as §1, §2, §3, §4, §5, §6

[16] = tested on: Geotrichim candidum; details: 3x assays
Protocol: as §1, §2, §3, §4, §5, §6

[17] = tested on: Ustilago maydis; details: 3x assays
Protocol: as §1, §2, §3, §4, §5, §6

[18] = tested on: Monilinia sp.; details: 2x assays
Protocol: as §1, §2, §3, §4, §5, §6

[19] = tested on: Septoria passerinii; details: 3x assays
Protocol: as §1, §2, §3, §4, §5, §6

[20] = tested on: Penicillium roqueforti; details: 3x assays
Protocol: as §1, §2, §3, §4, §5, §6

[21] = tested on: Mycosphaeella fijiensis (Sigatoka); details: 3x assays
Protocol: as §1, §2, §3, §4, §5, §6

[22] = Table 2 (two day results), observed at 7 day
[23] = Table 3 (five day results), observed at 21 days
[24] = Table 3 (five day results), observed at 9 day

pseudomycin A-FB
lowest level of compound that results in no growth ([1]; five day results): NI | lowest level of compound that results in no growth ([1]; two day results): NI | lowest level of compound that results in no growth ([2]; five day results): NI | lowest level of compound that results in no growth ([2]; two day results): NI | lowest level of compound that results in no growth ([3]; five day results): p at 50 | lowest level of compound that results in no growth ([3]; two day results): 50 µg/mL | lowest level of compound that results in no growth ([4]; five day results): 25 µg/mL | lowest level of compound that results in no growth ([4]; two day results): 25 µg/mL | lowest level of compound that results in no growth ([5]; five day results): NI | lowest level of compound that results in no growth ([5]; two day results, 2x assays): 25 µg/mL | lowest level of compound that results in no growth ([6]; five day results): NI | lowest level of compound that results in no growth ([6]; two day results): NI | lowest level of compound that results in no growth ([7]; five day results): NI | lowest level of compound that results in no growth ([7]; two day results): NI | lowest level of compound that results in no growth ([8]; five day results): NI | lowest level of compound that results in no growth ([8]; two day results): NI | lowest level of compound that results in no growth ([9]; five day results): NI | lowest level of compound that results in no growth ([9]; two day results): p at 50 | lowest level of compound that results in no growth [10]: p at 50 | lowest level of compound that results in no growth ([11]; five day results): NI | lowest level of compound that results in no growth ([11]; two day results): NI | lowest level of compound that results in no growth [12, 22]: 0.25 µg/mL | lowest level of compound that results in no growth [12, 23]: 0.25 µg/mL | lowest level of compound that results in no growth ([13]; five day results): 50 µg/mL | lowest level of compound that results in no growth ([13]; two day results): 6.25 µg/mL | lowest level of compound that results in no growth ([14]; five day results): 0.25 µg/mL | lowest level of compound that results in no growth ([14]; two day results): 0.25 µg/mL | lowest level of compound that results in no growth [15, 24]: 0.25 µg/mL | lowest level of compound that results in no growth ([15]; two day results): 0.25 µg/mL | lowest level of compound that results in no growth ([16]; five day results): 6.25 µg/mL | lowest level of compound that results in no growth ([16]; two day results): 3.12 µg/mL | lowest level of compound that results in no growth ([17]; five day results): 1 µg/mL | lowest level of compound that results in no growth ([17]; two day results): 1 µg/mL | lowest level of compound that results in no growth ([18]; five day results): 12.5 µg/mL | lowest level of compound that results in no growth ([18]; two day results): 6.25 µg/mL | lowest level of compound that results in no growth ([19]; five day results): 0.06 µg/mL | lowest level of compound that results in no growth ([19]; five day results, listed as pseudomycin A (free base)): 0.0625 µg/mL | lowest level of compound that results in no growth ([19]; two day results): 0.06 µg/mL | lowest level of compound that results in no growth ([20]; five day results): 3.12 µg/mL | lowest level of compound that results in no growth ([20]; two day results): 1 µg/mL | lowest level of compound that results in no growth [21, 22]: 0.5 µg/mL | lowest level of compound that results in no growth [21, 23]: 1 µg/mL

Pseudomycin B
lowest level of compound that results in no growth ([1]; five day results): NI | lowest level of compound that results in no growth ([1]; two day results): NI | lowest level of compound that results in no growth ([2]; five day results): NI | lowest level of compound that results in no growth ([2]; two day results): NI | lowest level of compound that results in no growth ([3]; five day results): p at 50 | lowest level of compound that results in no growth ([3]; two day results): 25 µg/mL | lowest level of compound that results in no growth ([4]; five day results): 50 µg/mL | lowest level of compound that results in no growth ([4]; two day results): NI | lowest level of compound that results in no growth ([5]; five day results): p at 50 | lowest level of compound that results in no growth ([5]; two day results, 2x assays): 50 µg/mL | lowest level of compound that results in no growth ([6]; five day results): NI | lowest level of compound that results in no growth ([6]; two day results): NI | lowest level of compound that results in no growth ([7]; five day results): NI | lowest level of compound that results in no growth ([7]; two day results): NI | lowest level of compound that results in no growth ([8]; five day results): NI | lowest level of compound that results in no growth ([8]; two day results): NI | lowest level of compound that results in no growth ([9]; five day results): p at 50 | lowest level of compound that results in no growth ([9]; two day results): p at 50 | lowest level of compound that results in no growth [10]: p at 50 | lowest level of compound that results in no growth ([11]; five day results): NI | lowest level of compound that results in no growth ([11]; two day results): NI | lowest level of compound that results in no growth [12, 22]: 0.06 µg/mL | lowest level of compound that results in no growth ([12]; Table 3 (five day results), observed at 21 days, listed as B): 0.12 µg/mL | lowest level of compound that results in no growth ([12]; Table 3 (five day results), observed at 21 days, listed as pseudomycin B): 0.125 µg/mL | lowest level of compound that results in no growth ([13]; five day results): 50 µg/mL | lowest level of compound that results in no growth ([13]; two day results): 6.25 µg/mL | lowest level of compound that results in no growth ([14]; five day results, listed as B): 0.06 µg/mL | lowest level of compound that results in no growth ([14]; five day results, listed as pseudomycin B): 0.0625 µg/mL | lowest level of compound that results in no growth ([14]; two day results): 0.06 µg/mL | lowest level of compound that results in no growth [15, 24]: 0.0625 µg/mL and 0.06 µg/mL | lowest level of compound that results in no growth ([15]; two day results): 0.06 µg/mL | lowest level of compound that results in no growth ([16]; five day results): 3.12 µg/mL | lowest level of compound that results in no growth ([16]; two day results): 1.56 µg/mL | lowest level of compound that results in no growth ([17]; five day results): 0.5 µg/mL | lowest level of compound that results in no growth ([17]; two day results): 0.5 µg/mL | lowest level of compound that results in no growth ([18]; five day results): 6.25 µg/mL | lowest level of compound that results in no growth ([18]; two day results): 3.13 µg/mL | lowest level of compound that results in no growth ([19]; five day results, listed as B): 0.0625 µg/mL and 0.06 µg/mL | lowest level of compound that results in no growth ([19]; two day results): 0.06 µg/mL | lowest level of compound that results in no growth ([20]; five day results): 6.25 µg/mL | lowest level of compound that results in no growth ([20]; two day results): 0.5 µg/mL | lowest level of compound that results in no growth [21, 22]: 0.5 µg/mL | lowest level of compound that results in no growth [21, 23]: 1 µg/mL
